The test system of this assay is M. tuberculosis H37Rv growth inhibition. In words: M. tuberculosis H37Rv growth inhibitors, H37Rv strain (AID 1626). The following applies: for IC90: measured here: IC90 against H37Rv; for CC50: measured here: Vero cell cytotoxicity.

Among the data in PubChem BioAssay AID1626 (SRMLSC, 2009) are IC50, IC90 and CC50 values, retold here.

Some results are limits rather than exact numbers.

Regarding `CC(C)(C)n1c(O)c(C=Nc2ccc3c(c2)CCC3)c(=O)[nH]c1=O`, the concentration for half-maximal inhibition (IC50) (usually the concentration that inhibits the measured activity by half) is 37.8 µM; the 90% effect concentration (IC90) (as a rule, the point of the concentration-response curve where the effect stands at 90%) is above 100 µM; the CC50 (commonly the concentration at which the toxic effect on the cells reaches its halfway point) is above 40 µM.
For the compound `O=C(/C=C/c1cccnc1)/C=C/c1cccnc1`, the IC50 was 0.909 µM, the 90% effect concentration (IC90) stood at 1.33 µM and the CC50 amounted to 3.09 µM.
On to `C#CCn1c(=NC(=O)c2cc(Cl)sc2Cl)sc2cc(S(N)(=O)=O)ccc21`, for which the half-inhibitory concentration (IC50) is 1.57 µM, the concentration for an effect of 90% (IC90) is above 100 µM and the 50% cytotoxic concentration (CC50) is above 40 µM.
Regarding `COC(=O)C(Oc1ccc2c(-c3ccc(OC)cc3)cc(=O)oc2c1)c1ccccc1` (centres undefined), the 50% inhibitory concentration (IC50) was 15.4 µM and the 90% effect concentration (IC90) was determined as 20.9 µM.
Take `N=C1SC(c2ccccc2)C(=O)N1c1ncc(Cc2ccccc2)s1` (centres undefined): the IC50 is 26 µM, the IC90 is above 100 µM and the CC50 amounted to 34.9 µM.
With `O=C(NCCc1ccc(Cl)cc1)C1CCC(CNc2c(N3CCCCC3)c(=O)c2=O)CC1` (centres undefined), the IC50 is 11.8 µM and the IC90 was determined as 13.4 µM.
Turning to `O=C(c1ccc2c(c1)[nH]c(=S)n1c3ccccc3nc21)N1CCN(c2cccc(Cl)c2)CC1`, the IC50 was 4.39 µM, the IC90 turned out to be 32.3 µM and the 50% cytotoxic concentration (CC50) is 26.5 µM.
Turning to `COC(=O)c1ccccc1Sc1ncnc2onc(C)c12`, the IC50 was 15.3 µM, the concentration for an effect of 90% (IC90) turned out to be 30.7 µM and the CC50 is above 40 µM.
`O=C(c1cnc(N2CCN(c3ccccn3)CC2)c2ccccc12)N1CCN(c2cccc(Cl)c2)CC1`: the half-inhibitory concentration (IC50) is 8.67 µM, the 90% effect concentration (IC90) was above 100 µM and the half-maximal cytotoxic concentration (CC50) is above 40 µM.
Taken in the same sequence, the figures for `O=C(CCC(=O)OCc1ccc(C(=O)Oc2ccccc2)cc1)Nc1cccc2ccccc12` were 7.06 µM, 10.1 µM and above 40 µM.
On to `Cc1ccc2nc(/C(C#N)=C\c3ccc(OC(=O)c4cccs4)cc3)[nH]c2c1`, for which the IC50 is 20.4 µM, the IC90 was above 100 µM and the CC50 amounted to 22.9 µM.
The corresponding values for `CCN1CCN(Cc2ccc(NC(=O)c3ccc(C)c(NC(=O)C(=O)c4c[nH]c5ccccc45)c3)cc2C(F)(F)F)CC1` are 4.32 µM, 5.57 µM and 6.73 µM.
Regarding `CCn1cnc2sc(C(=O)Oc3cccc(C)c3)c(C)c2c1=O`, the IC50 is below 0.195 µM and the IC90 came out at 2.36 µM.
Consider `CCCN(CCC)CC(O)Cn1cc(/C=C/C(=O)c2ccccc2)c2ccccc21` (centres undefined), for which the IC50 is 1.5 µM, the concentration for an effect of 90% (IC90) was 1.66 µM and the CC50 was found to be 20.3 µM.
For the compound `COc1ccc(NC(=O)CSC2=C(C#N)C(c3ccco3)C(C(=O)Nc3nc4ccccc4s3)=C(C)N2)cc1` (centres undefined), the half-inhibitory concentration (IC50) was 14 µM, the IC90 was above 100 µM and the cytotoxic concentration (CC50) is above 40 µM.
The corresponding values for `C[C@H](NC(=O)c1[nH]cnc1C(=O)Nc1ccccc1)C(=O)OC(C)(C)C` are 1.68 µM, 5.62 µM and above 40 µM.
Taken in the same sequence, the figures for `COc1cnc(-c2ccccn2)nc1Sc1ccccc1` were 2.66 µM, 4.96 µM and 8.62 µM.
For the compound `Cc1ccccc1-c1nc2cc(N)ccc2o1`, the 50% inhibitory concentration (IC50) is 15.3 µM and the IC90 was above 100 µM.
For `Brc1c(CSc2nncc3ccccc23)nc2ccccn12`, the IC50 is 5.58 µM, the IC90 was found to be 16.3 µM and the CC50 was above 40 µM.
Turning to `O=C(OCC(=O)c1c[nH]c2ccccc12)c1ccc([N+](=O)[O-])s1`, the IC50 is 1.21 µM and the IC90 was determined as 1.93 µM.
On to `O=c1[nH]c(-c2ccccn2)nc2ccccc12`, for which the 50% inhibitory concentration (IC50) was 5.87 µM, the IC90 is 6.72 µM and the CC50 is above 40 µM.
In the case of `CCOC(=O)C(C)Sc1ncc(-c2ccc(Cl)cc2)cn1` (centres undefined), the IC50 was 2.71 µM and the IC90 came out at 5.04 µM.
Consider `O=C(/C=C/c1ccc2c(c1)OCO2)c1c(O)n(CCc2ccccc2)c(=O)[nH]c1=O`, for which the IC50 is 6.87 µM, the IC90 was found to be 9.99 µM and the CC50 was found to be 27.4 µM.
For `O=C(Nc1nnc(-c2ccccn2)o1)c1cccc(Cl)c1`, the 50% inhibitory concentration (IC50) is 5.25 µM, the 90% effect concentration (IC90) is above 100 µM and the CC50 was above 40 µM.
As for `CCOc1ccc(NC(C)c2cc(Cl)ccc2O)cc1` (centres undefined), the IC50 is 10.5 µM and the 90% effect concentration (IC90) is above 100 µM.
On to `O=[N+]([O-])c1cc(S(=O)(=O)C(F)(F)F)ccc1Sc1nc2ccccc2s1`, for which the half-inhibitory concentration (IC50) is 0.699 µM, the 90% effect concentration (IC90) was determined as 0.781 µM and the CC50 worked out at 12.6 µM.
Turning to `O=C(CSc1nc2ccccc2o1)Nc1nc(-c2ccccc2)cs1`, the IC50 is 28.1 µM and the IC90 was above 100 µM.
Take `CC(=O)c1ccc(NC(=O)c2ccc(CNc3c(N4CCOCC4)c(=O)c3=O)cc2)cc1`: the concentration for half-maximal inhibition (IC50) is 5.81 µM and the IC90 is 6.61 µM.
Turning to `C/C=C/C(=O)OCC(=O)Nc1ccc(OC)c(Cl)c1`, the IC50 was 20 µM and the concentration for an effect of 90% (IC90) is above 100 µM.
As for `COc1ccc(-c2ccnc3nc(N4CCN(c5ccccc5)CC4)nn23)cc1`, the IC50 was 14.9 µM, the 90% effect concentration (IC90) was above 100 µM and the CC50 was above 40 µM.
Turning to `CCCNC(=O)CSc1nnc(-c2ccc(F)cc2)o1`, the 50% inhibitory concentration (IC50) is 5.88 µM and the IC90 is above 100 µM.
For the compound `Cc1ccc(NC(=O)CCSc2nnc(Cc3ccccc3)o2)cc1`, the IC50 is 16.5 µM and the 90% effect concentration (IC90) was found to be 29.3 µM.
As to `COc1ccc(CN2CCN(CC(O)Cn3c4ccccc4c4ccccc43)CC2)cc1` (centres undefined), the IC50 is 5.34 µM, the 90% effect concentration (IC90) worked out at 8.3 µM and the CC50 stood at 15 µM.
Consider `Cc1ccc(CNCC(O)(c2ccccc2)c2ccc(Cl)cc2)cc1` (centres undefined), for which the IC50 is 8.17 µM, the IC90 is 10.9 µM and the cytotoxic concentration (CC50) is above 40 µM.
For `CCOc1ccc(NC(C(=O)Nc2cccc(C(C)=O)c2)c2ccccc2)cc1` (centres undefined), the 90% effect concentration (IC90) was above 100 µM.
Take `Nc1nc(N)c2cc(Sc3ccc4ccccc4c3)ccc2n1`: the IC50 is 1.61 µM, the IC90 amounted to 3.16 µM and the CC50 stood at 1.01 µM.
Turning to `CCC1CCCCN1C(=O)COC(=O)c1cc(Br)ccc1Cl` (centres undefined), the IC50 is 15.2 µM and the 90% effect concentration (IC90) was above 100 µM.
Turning to `Cc1cc(C)cc(OCc2nnc(SCC(=O)OC3CCCCC3)o2)c1`, the IC50 was 1.83 µM and the IC90 amounted to 11.8 µM.
For `COc1ccc2cc(C(c3nnnn3C3CCCC3)N3CCCCCC3)c3nnnn3c2c1` (centres undefined), the half-maximal cytotoxic concentration (CC50) turned out to be 15.1 µM.
As for `COc1cc2nc(C3CCC3)nc(N3CCN(c4ccccc4OC)CC3)c2cc1OC`, the IC50 was 3.9 µM, the IC90 came to 6.52 µM and the CC50 is above 40 µM.
Compound `O=C(CSc1nnc(NC(=O)c2ccccc2Cl)s1)Nc1ccc2c(c1)oc1ccccc12` came in with a CC50 above 40 µM.
For the compound `Cc1ccc(-n2c(C)cc(C3N=C(N)Nc4nc5ccccc5n43)c2C)c(C)c1` (centres undefined), the IC50 is 8.26 µM, the IC90 was 10.8 µM and the CC50 was above 40 µM.
Regarding `O=c1nc2c(O)cccn2c2c1c(=O)[nH]c1ccccc12`, the half-inhibitory concentration (IC50) was 6.69 µM and the IC90 amounted to 12.4 µM.
As to `Cc1ccc(OC(=O)c2ccc(Br)o2)cc1`, the half-maximal inhibitory concentration (IC50) is 65.4 µM and the IC90 was above 100 µM.
Taken in the same sequence, the figures for `CCOC(=O)CSc1ncnc2c1cnn2-c1ccc(C)cc1` were 10.1 µM and 22.5 µM.
With `CCOC(=O)c1ccc(NC(=O)CCc2nc(-c3cccc(C)c3)no2)cc1`, the concentration for half-maximal inhibition (IC50) is 2.76 µM and the 90% effect concentration (IC90) is above 100 µM.
